Results: ChEMBL document CHEMBL1909046, “DrugMatrix in vitro pharmacology data”
Where a SMILES comes first, the peptide text is derived from it. Bridges are numbered along the chain shown (N, C = ends). [ ]: non-standard residue; d: D form. The star is where a group is joined. Ileψ(thiazoline)Cys = CC[C@H](C)[C@H](N)C1=N[C@H](C(=O)*)CS1; dOrn = NCCC[C@@H](N)C(=O)O

Assays:
[1] = target: T1, Alpha-1D adrenergic receptor (Homo sapiens, UniProt P25100); format: cell membranes, HEK293, Membrane; conditions: hek293; also: in other assays of this panel Not Active means under 50% inhibition at 10 µM
T1 sequence (P25100 whole entry): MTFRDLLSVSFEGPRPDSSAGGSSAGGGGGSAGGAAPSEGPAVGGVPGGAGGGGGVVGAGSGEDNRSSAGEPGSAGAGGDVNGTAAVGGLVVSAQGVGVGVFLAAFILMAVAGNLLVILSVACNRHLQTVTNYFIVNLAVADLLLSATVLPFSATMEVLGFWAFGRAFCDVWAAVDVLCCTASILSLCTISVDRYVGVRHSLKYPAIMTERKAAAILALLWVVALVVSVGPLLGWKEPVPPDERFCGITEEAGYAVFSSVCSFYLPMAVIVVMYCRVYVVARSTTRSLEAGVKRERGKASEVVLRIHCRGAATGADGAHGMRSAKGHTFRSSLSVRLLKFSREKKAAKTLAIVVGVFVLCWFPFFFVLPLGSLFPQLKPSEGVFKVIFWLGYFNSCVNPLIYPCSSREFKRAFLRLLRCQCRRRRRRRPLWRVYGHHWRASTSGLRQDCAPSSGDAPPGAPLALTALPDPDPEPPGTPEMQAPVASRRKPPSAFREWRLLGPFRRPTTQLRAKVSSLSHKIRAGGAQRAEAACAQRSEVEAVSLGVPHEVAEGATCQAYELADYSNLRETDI

Melanocortin receptor 3 = Melanocortin receptor 3 (Homo sapiens, UniProt P41968); format: cell membranes, Membrane; conditions: hek293; also: in other assays of this panel Not Active means under 50% inhibition at 10 µM
[2] = target: 5-hydroxytryptamine receptor 4 (Cavia porcellus, UniProt O70528); format: cell membranes, Dunkin-Hartley, Striatum, Membrane; also: in other assays of this panel Not Active means under 50% inhibition at 10 µM
Substance-P receptor = Substance-P receptor (Homo sapiens, UniProt P25103); format: cell membranes, CHO, Membrane; conditions: cho; also: in other assays of this panel Not Active means under 50% inhibition at 10 µM
[3] = target: Mitogen-activated protein kinase 1 (Homo sapiens, UniProt P28482); assay: DRUGMATRIX: Protein Serine/Threonine Kinase, ERK2 enzyme inhibition (substrate: Myelin Basic Protein); set-up: species or system Escherichia coli; conditions: Not Active = under 50% inhibition at 10 µM
Cytochrome P450 2E1 = Cytochrome P450 2E1 (Homo sapiens, UniProt P05181); conditions: bti-tn-5b1-4; also: in other assays of this panel Not Active means under 50% inhibition at 10 µM
[4] = target: 5-hydroxytryptamine receptor 1B (Rattus norvegicus, UniProt P28564); format: cell membranes, Wistar, Cerebral cortex, Membrane; also: in other assays of this panel Not Active means under 50% inhibition at 10 µM
[5] = target: T2, Cysteinyl leukotriene receptor 1 (Homo sapiens, UniProt Q9Y271); format: cell membranes, CHO-K1, Membrane; conditions: cho-k1; also: in other assays of this panel Not Active means under 50% inhibition at 10 µM
T2 sequence (Q9Y271 whole entry): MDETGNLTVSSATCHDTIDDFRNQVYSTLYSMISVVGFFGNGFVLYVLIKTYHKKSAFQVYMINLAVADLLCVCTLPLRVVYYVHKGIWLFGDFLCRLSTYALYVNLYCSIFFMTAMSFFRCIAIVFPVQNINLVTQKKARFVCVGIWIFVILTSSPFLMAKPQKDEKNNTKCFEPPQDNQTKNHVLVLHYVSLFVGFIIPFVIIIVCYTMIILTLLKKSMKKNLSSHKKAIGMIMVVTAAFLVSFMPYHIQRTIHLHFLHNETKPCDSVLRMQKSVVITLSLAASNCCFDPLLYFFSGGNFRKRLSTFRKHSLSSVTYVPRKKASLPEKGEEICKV

Adenosine receptor A1 = target: T3, Adenosine receptor A1 (Homo sapiens, UniProt P30542); format: cell membranes, CHO, Membrane
T3 sequence (P30542 whole entry): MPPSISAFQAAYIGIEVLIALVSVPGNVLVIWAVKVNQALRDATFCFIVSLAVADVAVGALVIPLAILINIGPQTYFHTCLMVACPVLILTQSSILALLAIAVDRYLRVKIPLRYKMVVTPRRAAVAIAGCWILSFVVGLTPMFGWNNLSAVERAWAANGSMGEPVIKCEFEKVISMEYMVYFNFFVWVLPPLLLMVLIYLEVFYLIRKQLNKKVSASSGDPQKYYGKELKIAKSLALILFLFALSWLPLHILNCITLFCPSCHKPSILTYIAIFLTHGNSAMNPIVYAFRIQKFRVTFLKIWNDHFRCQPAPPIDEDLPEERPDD

[6] = target: 5-hydroxytryptamine receptor 6 (Homo sapiens, UniProt P50406); format: cell membranes, HeLa, Membrane; conditions: hela; also: in other assays of this panel Not Active means under 50% inhibition at 10 µM
[7] = target: Mitogen-activated protein kinase 3 (Homo sapiens, UniProt P27361); assay: DRUGMATRIX: Protein Serine/Threonine Kinase, ERK1 enzyme inhibition (substrate: Myelin Basic Protein); set-up: species or system Escherichia coli; conditions: Not Active = under 50% inhibition at 10 µM
Endothelin-1 receptor = target: T4, Endothelin-1 receptor (Homo sapiens, UniProt P25101); format: cell membranes, Membrane; conditions: cho-k1; also: in other assays of this panel Not Active means under 50% inhibition at 10 µM
T4 sequence (P25101 whole entry): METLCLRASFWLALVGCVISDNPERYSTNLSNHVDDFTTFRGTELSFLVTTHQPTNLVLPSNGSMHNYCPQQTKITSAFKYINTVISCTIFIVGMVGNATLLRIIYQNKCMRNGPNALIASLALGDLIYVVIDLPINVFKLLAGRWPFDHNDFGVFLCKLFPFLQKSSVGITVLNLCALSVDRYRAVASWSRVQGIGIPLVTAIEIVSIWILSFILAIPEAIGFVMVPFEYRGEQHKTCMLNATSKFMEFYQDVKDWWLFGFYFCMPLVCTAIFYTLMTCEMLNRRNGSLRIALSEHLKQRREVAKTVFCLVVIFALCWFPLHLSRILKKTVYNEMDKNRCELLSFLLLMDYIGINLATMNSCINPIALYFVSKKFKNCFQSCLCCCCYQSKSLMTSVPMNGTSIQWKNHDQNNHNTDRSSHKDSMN

Cytochrome P450 1A2 = target: T5, Cytochrome P450 1A2 (Homo sapiens, UniProt P05177); conditions: bti-tn-5b1-4; also: in other assays of this panel Not Active means under 50% inhibition at 10 µM
T5 sequence (P05177 whole entry): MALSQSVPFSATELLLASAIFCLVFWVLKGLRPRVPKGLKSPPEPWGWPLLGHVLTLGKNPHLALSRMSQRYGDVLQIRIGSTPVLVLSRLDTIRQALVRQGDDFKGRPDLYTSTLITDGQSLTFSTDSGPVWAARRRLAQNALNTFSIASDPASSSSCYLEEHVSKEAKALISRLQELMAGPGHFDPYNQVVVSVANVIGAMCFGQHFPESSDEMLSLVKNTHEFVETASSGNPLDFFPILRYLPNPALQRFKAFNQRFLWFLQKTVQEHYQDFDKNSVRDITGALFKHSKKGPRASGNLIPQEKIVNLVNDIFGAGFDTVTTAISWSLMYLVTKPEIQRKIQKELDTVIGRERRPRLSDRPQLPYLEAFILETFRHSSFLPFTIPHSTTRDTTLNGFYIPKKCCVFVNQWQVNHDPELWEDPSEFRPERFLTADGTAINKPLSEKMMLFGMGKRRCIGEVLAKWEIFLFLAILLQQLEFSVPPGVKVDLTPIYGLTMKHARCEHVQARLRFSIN

Chain of Mitogen-activated protein kinase 1 (P28482 whole entry): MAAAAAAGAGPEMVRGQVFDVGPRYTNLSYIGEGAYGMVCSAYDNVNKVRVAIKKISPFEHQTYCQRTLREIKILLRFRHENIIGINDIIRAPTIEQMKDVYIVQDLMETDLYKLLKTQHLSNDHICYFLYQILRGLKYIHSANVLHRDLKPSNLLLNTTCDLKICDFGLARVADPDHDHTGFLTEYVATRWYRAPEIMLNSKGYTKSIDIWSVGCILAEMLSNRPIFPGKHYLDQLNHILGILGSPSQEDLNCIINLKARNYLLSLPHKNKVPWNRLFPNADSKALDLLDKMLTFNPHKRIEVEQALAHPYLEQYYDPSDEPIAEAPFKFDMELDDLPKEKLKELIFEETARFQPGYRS
Chain of 5-hydroxytryptamine receptor 4 (O70528 whole entry): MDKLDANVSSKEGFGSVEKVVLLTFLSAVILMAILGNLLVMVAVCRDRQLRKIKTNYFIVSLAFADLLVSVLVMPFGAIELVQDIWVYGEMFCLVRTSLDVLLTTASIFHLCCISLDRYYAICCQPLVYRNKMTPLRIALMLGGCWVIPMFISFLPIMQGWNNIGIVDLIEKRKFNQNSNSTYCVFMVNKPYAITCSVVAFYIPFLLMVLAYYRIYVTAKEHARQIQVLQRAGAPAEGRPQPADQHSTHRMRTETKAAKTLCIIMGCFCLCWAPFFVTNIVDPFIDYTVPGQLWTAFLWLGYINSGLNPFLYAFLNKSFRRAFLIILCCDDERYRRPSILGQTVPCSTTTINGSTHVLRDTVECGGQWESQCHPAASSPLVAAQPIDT
Chain of 5-hydroxytryptamine receptor 1B (P28564 whole entry): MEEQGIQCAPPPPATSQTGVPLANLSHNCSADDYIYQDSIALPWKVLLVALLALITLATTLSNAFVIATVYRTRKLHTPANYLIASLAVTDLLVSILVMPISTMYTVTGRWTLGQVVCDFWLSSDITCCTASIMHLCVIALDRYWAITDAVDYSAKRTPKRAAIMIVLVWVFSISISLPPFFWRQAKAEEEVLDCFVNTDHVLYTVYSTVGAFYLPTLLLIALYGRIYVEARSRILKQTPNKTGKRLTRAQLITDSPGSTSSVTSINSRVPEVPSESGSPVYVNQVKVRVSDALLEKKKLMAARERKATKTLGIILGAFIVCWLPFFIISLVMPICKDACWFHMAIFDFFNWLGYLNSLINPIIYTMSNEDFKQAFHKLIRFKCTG
Chain of Substance-P receptor (P25103 whole entry): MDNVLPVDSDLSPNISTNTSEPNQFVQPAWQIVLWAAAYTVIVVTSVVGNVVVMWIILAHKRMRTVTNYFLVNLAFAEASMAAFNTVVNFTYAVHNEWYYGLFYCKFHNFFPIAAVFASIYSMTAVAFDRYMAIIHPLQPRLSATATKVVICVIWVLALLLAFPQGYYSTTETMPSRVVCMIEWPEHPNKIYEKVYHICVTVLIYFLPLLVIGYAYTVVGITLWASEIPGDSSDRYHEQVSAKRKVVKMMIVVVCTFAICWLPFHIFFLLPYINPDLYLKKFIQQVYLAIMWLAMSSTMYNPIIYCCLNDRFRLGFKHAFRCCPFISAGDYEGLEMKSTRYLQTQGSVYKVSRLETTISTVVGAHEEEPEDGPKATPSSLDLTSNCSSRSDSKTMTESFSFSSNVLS
Chain of 5-hydroxytryptamine receptor 6 (P50406 whole entry): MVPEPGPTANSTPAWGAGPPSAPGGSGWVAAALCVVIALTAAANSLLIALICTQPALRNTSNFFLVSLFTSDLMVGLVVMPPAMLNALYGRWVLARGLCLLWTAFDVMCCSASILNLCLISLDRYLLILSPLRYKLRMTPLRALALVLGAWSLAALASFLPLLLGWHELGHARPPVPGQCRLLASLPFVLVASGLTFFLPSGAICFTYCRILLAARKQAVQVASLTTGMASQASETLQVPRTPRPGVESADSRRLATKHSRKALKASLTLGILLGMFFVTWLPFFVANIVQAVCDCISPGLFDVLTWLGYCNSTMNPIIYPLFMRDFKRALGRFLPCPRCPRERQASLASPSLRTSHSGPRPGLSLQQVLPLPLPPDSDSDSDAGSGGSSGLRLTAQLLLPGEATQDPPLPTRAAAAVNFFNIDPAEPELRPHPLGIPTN
Chain of Cytochrome P450 2E1 (P05181 whole entry): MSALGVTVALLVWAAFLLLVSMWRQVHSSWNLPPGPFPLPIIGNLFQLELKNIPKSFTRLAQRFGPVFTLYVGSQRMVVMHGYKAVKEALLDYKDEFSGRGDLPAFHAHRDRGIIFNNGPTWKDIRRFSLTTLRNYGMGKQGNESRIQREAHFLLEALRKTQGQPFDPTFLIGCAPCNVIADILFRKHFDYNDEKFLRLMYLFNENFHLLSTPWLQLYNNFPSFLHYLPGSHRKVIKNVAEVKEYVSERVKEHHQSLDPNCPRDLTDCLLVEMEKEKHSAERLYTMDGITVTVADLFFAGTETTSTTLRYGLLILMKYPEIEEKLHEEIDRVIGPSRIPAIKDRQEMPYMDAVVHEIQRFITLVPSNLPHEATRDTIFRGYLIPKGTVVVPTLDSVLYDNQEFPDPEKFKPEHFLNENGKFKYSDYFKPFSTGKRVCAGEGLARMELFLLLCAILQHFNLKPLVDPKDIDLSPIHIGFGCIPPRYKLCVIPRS
Chain of Melanocortin receptor 3 (P41968 whole entry): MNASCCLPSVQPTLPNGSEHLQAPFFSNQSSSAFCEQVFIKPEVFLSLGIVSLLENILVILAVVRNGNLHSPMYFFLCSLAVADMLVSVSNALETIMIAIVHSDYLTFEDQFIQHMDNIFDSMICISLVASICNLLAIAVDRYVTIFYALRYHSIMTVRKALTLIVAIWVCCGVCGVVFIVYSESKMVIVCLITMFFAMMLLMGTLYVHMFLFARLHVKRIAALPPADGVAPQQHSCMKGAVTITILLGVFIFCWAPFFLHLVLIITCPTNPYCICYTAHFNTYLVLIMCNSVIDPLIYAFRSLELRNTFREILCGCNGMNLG
Chain of Mitogen-activated protein kinase 3 (P27361 whole entry): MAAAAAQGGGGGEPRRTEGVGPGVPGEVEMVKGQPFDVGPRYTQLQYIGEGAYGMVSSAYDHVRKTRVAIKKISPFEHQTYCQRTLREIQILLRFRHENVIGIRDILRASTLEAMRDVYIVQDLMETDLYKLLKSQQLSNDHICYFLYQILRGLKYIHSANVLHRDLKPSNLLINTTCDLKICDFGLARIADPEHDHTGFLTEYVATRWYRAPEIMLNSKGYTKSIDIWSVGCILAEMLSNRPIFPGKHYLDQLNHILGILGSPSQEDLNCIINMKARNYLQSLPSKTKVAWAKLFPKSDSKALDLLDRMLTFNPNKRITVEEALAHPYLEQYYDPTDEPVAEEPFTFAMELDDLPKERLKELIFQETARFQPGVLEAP

Row | Compound | IC50 [1] | IC50 (Melanocortin receptor 3) | IC50 [2] | IC50 (Substance-P receptor) | IC50 [3] | IC50 (Cytochrome P450 2E1) | Ki (Cytochrome P450 2E1) | IC50 [4] | IC50 [5] | IC50 (Adenosine receptor A1; cho) | IC50 [6] | IC50 [7] | IC50 (Endothelin-1 receptor) | IC50 (Adenosine receptor A1; read-out: IC50) | Ki (Adenosine receptor A1; read-out: Ki) | IC50 (Cytochrome P450 1A2) | Ki (Cytochrome P450 1A2)
1 | Cc1[nH]cnc1CN1CCc2c(c3ccccc3n2C)C1=O [ALOSETRON] | Not Active | Not Active | Not Active | Not Active | Not Active | Not Active | Not Active | Not Active | Not Active | Not Active | Not Active | Not Active | Not Active |  |  |  | 
2 | O=P1(NCCCl)OCCCN1CCCl (configuration not stated) [IFOSFAMIDE] | Not Active | Not Active | Not Active | Not Active | Not Active |  |  | Not Active | Not Active | Not Active | Not Active | Not Active | Not Active |  |  |  | 
3 | CC(C)NC[C@H](O)COc1cccc2[nH]ccc12 | Not Active | Not Active | Not Active | Not Active | Not Active |  |  | Not Active | Not Active | Not Active | Not Active | Not Active | Not Active |  |  |  | 
4 | NCC(=O)O [GLYCINE] | Not Active | Not Active | Not Active | Not Active | Not Active |  |  | Not Active | Not Active | Not Active | Not Active | Not Active | Not Active |  |  |  | 
5 | CC1(C)S[C@@H]2[C@H](NC(=O)[C@H](N)c3ccc(O)cc3)C(=O)N2[C@H]1C(=O)O [AMOXICILLIN] | Not Active | Not Active | Not Active | Not Active | Not Active | Not Active | Not Active | Not Active | Not Active | Not Active | Not Active | Not Active | Not Active |  |  |  | 
6 | c1ccc2c(c1)cc1ccc3cccc4ccc2c1c34 | Not Active | Not Active | Not Active | Not Active | Not Active | Not Active | Not Active | Not Active | Not Active | Not Active | Not Active | Not Active | Not Active |  |  |  | 
7 | CCCCOC(=O)c1ccc(N)cc1 [BUTAMBEN] | Not Active | Not Active | Not Active | Not Active | Not Active | Not Active | Not Active | Not Active | Not Active | Not Active | Not Active | Not Active | Not Active |  |  |  | 
8 | O=c1cc(-c2ccccc2)oc2c1ccc1ccccc12 [ALPHA-NAPHTHOFLAVONE] | Not Active | Not Active | Not Active | Not Active | Not Active | Not Active | Not Active | Not Active | Not Active |  | Not Active | Not Active | Not Active | 1130 nM | 661 nM |  | 
9 | NS(=O)(=O)c1cc2c(cc1Cl)NCNS2(=O)=O [HYDROCHLOROTHIAZIDE] | Not Active | Not Active | Not Active | Not Active | Not Active | Not Active | Not Active | Not Active | Not Active | Not Active | Not Active | Not Active | Not Active |  |  |  | 
10 | O=C1OCCN1/N=C/c1ccc([N+](=O)[O-])o1 [FURAZOLIDONE] | Not Active | Not Active | Not Active | Not Active | Not Active |  |  | Not Active | Not Active | Not Active | Not Active | Not Active | Not Active |  |  |  | 
11 | CC[C@H](C)[C@H](N)C1=N[C@H](C(=O)N[C@@H](CC(C)C)C(=O)N[C@H](CCC(=O)O)C(=O)N[C@H](C(=O)N[C@H]2CCCCNC(=O)[C@H](CC(N)=O)NC(=O)[C@@H](CC(=O)O)NC(=O)[C@H](Cc3cnc[nH]3)NC(=O)[C@@H](Cc3ccccc3)NC(=O)[C@H]([C@@H](C)CC)NC(=O)[C@@H](CCCN)NC2=O)[C@@H](C)CC)CS1 [BACITRACIN] ({Ileψ(thiazoline)Cys}-L[dE]IK[dOrn]I[dF]H[dD]N; lactam 4-C) | Not Active | Not Active | Not Active | Not Active | Not Active | Not Active | Not Active |  | Not Active | Not Active | Not Active | Not Active | Not Active |  |  | Not Active | Not Active
